Experimental data reported in patent US11718604B2, “4-amino-6-(1,3-benzodioxole)picolinates and their use as herbicides” (Dow AgroSciences LLC, priority 2018, dated 2023).

How the values were obtained:
Format in all cases: in vivo
[1] = tested on: SORVU: shattercane (Sorghum bicolor); assay: Post-emergent herbicidal test, shattercane; conditions: post-emergence, 336 h, 14 days after application, read-out: Visual Growth Reduction (%) 14 Days After Application SORVU; for pest or weed control at 17.5 g/ha: 17.5 g ai/ha; for pest or weed control at 35 g/ha: 35 g ai/ha; for pest or weed control at 70 g/ha: 70 g ai/ha; for pest or weed control at 140 g/ha: 140 g ai/ha
How it was run: (§1)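 Post-emergence foliar spray, 187 L/ha, 1st–2nd true leaf plants; vehicle acetone/DMSO/IPA/water + Atplus 411F + Triton X-155; solvent-blank controls; subirrigated; 14 d greenhouse, visual % injury.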

[2] = tested on: VIOTR: wild violet (Viola tricolor); assay: Post-emergent herbicidal test, wild violet; conditions: post-emergence, 336 h, 14 days after application, read-out: Visual Growth Reduction (%) 14 Days After Application VIOTR; for pest or weed control at 17.5 g/ha: 17.5 g ai/ha; for pest or weed control at 35 g/ha: 35 g ai/ha; for pest or weed control at 70 g/ha: 70 g ai/ha; for pest or weed control at 140 g/ha: 140 g ai/ha
How it was run: as §1

[3] = tested on: EPHHL: wild poinsettia (Euphorbia heterophylla); assay: Post-emergent herbicidal test, wild poinsettia; conditions: post-emergence, 336 h, 14 days after application, read-out: Visual Growth Reduction (%) 14 Days After Application EPHHL; for pest or weed control at 17.5 g/ha: 17.5 g ai/ha; for pest or weed control at 35 g/ha: 35 g ai/ha; for pest or weed control at 70 g/ha: 70 g ai/ha; for pest or weed control at 140 g/ha: 140 g ai/ha
How it was run: as §1

[4] = tested on: SETFA: giant foxtail (Setaria faberi); assay: Post-emergent herbicidal test, giant foxtail; conditions: post-emergence, 336 h, 14 days after application, read-out: Visual Growth Reduction (%) 14 Days After Application SETFA; for pest or weed control at 17.5 g/ha: 17.5 g ai/ha; for pest or weed control at 35 g/ha: 35 g ai/ha; for pest or weed control at 70 g/ha: 70 g ai/ha; for pest or weed control at 140 g/ha: 140 g ai/ha
How it was run: as §1

[5] = tested on: CIRAR: Canada thistle (Cirsium arvense); assay: Post-emergent herbicidal test, Canada thistle; conditions: post-emergence, 336 h, 14 days after application, read-out: Visual Growth Reduction (%) 14 Days After Application CIRAR; for pest or weed control at 17.5 g/ha: 17.5 g ai/ha; for pest or weed control at 35 g/ha: 35 g ai/ha; for pest or weed control at 70 g/ha: 70 g ai/ha; for pest or weed control at 140 g/ha: 140 g ai/ha
How it was run: as §1

[6] = tested on: DIGSA: large crabgrass (Digitaria sanguinalis); assay: Post-emergent herbicidal test, large crabgrass; conditions: post-emergence, 336 h, 14 days after application, read-out: Visual Growth Reduction (%) 14 Days After Application DIGSA; for pest or weed control at 17.5 g/ha: 17.5 g ai/ha; for pest or weed control at 35 g/ha: 35 g ai/ha; for pest or weed control at 70 g/ha: 70 g ai/ha; for pest or weed control at 140 g/ha: 140 g ai/ha
How it was run: as §1

[7] = tested on: CYPES: yellow nutsedge (Cyperus esculentus); assay: Post-emergent herbicidal test, yellow nutsedge; conditions: post-emergence, 336 h, 14 days after application, read-out: Visual Growth Reduction (%) 14 Days After Application CYPES; for pest or weed control at 17.5 g/ha: 17.5 g ai/ha; for pest or weed control at 35 g/ha: 35 g ai/ha; for pest or weed control at 70 g/ha: 70 g ai/ha; for pest or weed control at 140 g/ha: 140 g ai/ha
How it was run: as §1

[8] = tested on: IPOHE: ivyleaf morningglory (Ipomoea hederacea); assay: Post-emergent herbicidal test, ivyleaf morningglory; conditions: post-emergence, 336 h, 14 days after application, read-out: Visual Growth Reduction (%) 14 Days After Application IPOHE; for pest or weed control at 17.5 g/ha: 17.5 g ai/ha; for pest or weed control at 35 g/ha: 35 g ai/ha; for pest or weed control at 70 g/ha: 70 g ai/ha; for pest or weed control at 140 g/ha: 140 g ai/ha
How it was run: as §1

[9] = tested on: ECHCG: barnyardgrass (Echinochloa crus-galli); assay: Post-emergent herbicidal test, barnyardgrass; conditions: post-emergence, 336 h, 14 days after application, read-out: Visual Growth Reduction (%) 14 Days After Application ECHCG; for pest or weed control at 17.5 g/ha: 17.5 g ai/ha; for pest or weed control at 35 g/ha: 35 g ai/ha; for pest or weed control at 70 g/ha: 70 g ai/ha; for pest or weed control at 140 g/ha: 140 g ai/ha
How it was run: as §1

[10] = tested on: ABUTH: velvetleaf (Abutilon theophrasti); assay: Post-emergent herbicidal test, velvetleaf; conditions: post-emergence, 336 h, 14 days after application, read-out: Visual Growth Reduction (%) 14 Days After Application ABUTH; for pest or weed control at 17.5 g/ha: 17.5 g ai/ha; for pest or weed control at 35 g/ha: 35 g ai/ha; for pest or weed control at 70 g/ha: 70 g ai/ha; for pest or weed control at 140 g/ha: 140 g ai/ha
How it was run: as §1

[11] = tested on: BRSNN: oilseed rape, canola (Brassica napus); assay: Post-emergent herbicidal test, oilseed rape; conditions: post-emergence, 336 h, 14 days after application, read-out: Visual Growth Reduction (%) 14 Days After Application BRSNN; for pest or weed control at 17.5 g/ha: 17.5 g ai/ha; for pest or weed control at 35 g/ha: 35 g ai/ha; for pest or weed control at 70 g/ha: 70 g ai/ha; for pest or weed control at 140 g/ha: 140 g ai/ha
How it was run: as §1

COC(=O)c1nc(-c2ccc(Cl)c3c2OC(F)(F)O3)c(Cl)c(N)c1Cl [Compound 13]
pest or weed control at 17.5 g/ha [1]: 0%
pest or weed control at 35 g/ha [1]: 0%
pest or weed control at 70 g/ha [1]: 0%
pest or weed control at 140 g/ha [1]: 0%
pest or weed control at 17.5 g/ha [2]: 0%
pest or weed control at 35 g/ha [2]: 0%
pest or weed control at 70 g/ha [2]: 0%
pest or weed control at 140 g/ha [2]: 0%
pest or weed control at 17.5 g/ha [3]: 0%
pest or weed control at 35 g/ha [3]: 0%
pest or weed control at 70 g/ha [3]: 0%
pest or weed control at 140 g/ha [3]: 0%
pest or weed control at 17.5 g/ha [4]: 0%
pest or weed control at 35 g/ha [4]: 0%
pest or weed control at 70 g/ha [4]: 0%
pest or weed control at 140 g/ha [4]: 0%
pest or weed control at 17.5 g/ha [5]: 50%
pest or weed control at 35 g/ha [5]: 60%
pest or weed control at 70 g/ha [5]: 80%
pest or weed control at 140 g/ha [5]: 85%
pest or weed control at 17.5 g/ha [6]: 0%
pest or weed control at 35 g/ha [6]: 0%
pest or weed control at 70 g/ha [6]: 0%
pest or weed control at 140 g/ha [6]: 0%
pest or weed control at 17.5 g/ha [7]: 0%
pest or weed control at 35 g/ha [7]: 0%
pest or weed control at 70 g/ha [7]: 0%
pest or weed control at 140 g/ha [7]: 0%
pest or weed control at 17.5 g/ha [8]: 0%
pest or weed control at 35 g/ha [8]: 10%
pest or weed control at 70 g/ha [8]: 20%
pest or weed control at 140 g/ha [8]: 30%
pest or weed control at 17.5 g/ha [9]: 0%
pest or weed control at 35 g/ha [9]: 0%
pest or weed control at 70 g/ha [9]: 0%
pest or weed control at 140 g/ha [9]: 0%
pest or weed control at 17.5 g/ha [10]: 30%
pest or weed control at 35 g/ha [10]: 50%
pest or weed control at 70 g/ha [10]: 75%
pest or weed control at 140 g/ha [10]: 80%
pest or weed control at 17.5 g/ha [11]: 40%
pest or weed control at 35 g/ha [11]: 60%
pest or weed control at 70 g/ha [11]: 70%
pest or weed control at 140 g/ha [11]: 80%

Nc1c(F)c(-c2ccc(Cl)c3c2OC(F)(F)O3)nc(C(=O)O)c1Cl [Compound 14]
pest or weed control at 17.5 g/ha [1]: 0%
pest or weed control at 35 g/ha [1]: 3%
pest or weed control at 70 g/ha [1]: 13%
pest or weed control at 140 g/ha [1]: 30%
pest or weed control at 17.5 g/ha [2]: 5%
pest or weed control at 35 g/ha [2]: 13%
pest or weed control at 70 g/ha [2]: 43%
pest or weed control at 140 g/ha [2]: 58%
pest or weed control at 17.5 g/ha [3]: 0%
pest or weed control at 35 g/ha [3]: 0%
pest or weed control at 70 g/ha [3]: 0%
pest or weed control at 140 g/ha [3]: 10%
pest or weed control at 17.5 g/ha [4]: 0%
pest or weed control at 35 g/ha [4]: 0%
pest or weed control at 70 g/ha [4]: 0%
pest or weed control at 140 g/ha [4]: 0%
pest or weed control at 17.5 g/ha [5]: 78%
pest or weed control at 35 g/ha [5]: 83%
pest or weed control at 70 g/ha [5]: 85%
pest or weed control at 140 g/ha [5]: 90%
pest or weed control at 17.5 g/ha [6]: 0%
pest or weed control at 35 g/ha [6]: 0%
pest or weed control at 70 g/ha [6]: 0%
pest or weed control at 140 g/ha [6]: 5%
pest or weed control at 17.5 g/ha [7]: 0%
pest or weed control at 35 g/ha [7]: 10%
pest or weed control at 70 g/ha [7]: 30%
pest or weed control at 140 g/ha [7]: 50%
pest or weed control at 17.5 g/ha [8]: 3%
pest or weed control at 35 g/ha [8]: 3%
pest or weed control at 70 g/ha [8]: 8%
pest or weed control at 140 g/ha [8]: 13%
pest or weed control at 17.5 g/ha [9]: 0%
pest or weed control at 35 g/ha [9]: 0%
pest or weed control at 70 g/ha [9]: 0%
pest or weed control at 140 g/ha [9]: 5%
pest or weed control at 17.5 g/ha [10]: 43%
pest or weed control at 35 g/ha [10]: 53%
pest or weed control at 70 g/ha [10]: 73%
pest or weed control at 140 g/ha [10]: 80%
pest or weed control at 17.5 g/ha [11]: 90%
pest or weed control at 35 g/ha [11]: 95%
pest or weed control at 70 g/ha [11]: 98%
pest or weed control at 140 g/ha [11]: 100%
